Source: patent publication US20240358659A1, “Uses of Propranolol for Managing Viral Infections” (Emory University, priority 2021, published 2024)

Assays:
[1] = tested on: SARS-CoV-2; details: incubation of SARS-CoV-2 with compound for 1 hr at 37° C., plaque assay
[2] = tested on: SARS-CoV-2; experiment: viral load reduction assay in Vero E6 cells (RT-qPCR of released genome copies); format: cell-based
[3] = tested on: SARS-CoV-2; experiment: viral load reduction assay in human lung epithelial (Calu) cells (RT-qPCR of released genome copies); format: cell-based; details: MOI 1, 150 uM, 16 h pi
[4] = tested on: SARS-CoV-2; experiment: time of addition assay in Vero cells, plaque assay; format: cell-based; details: infectious particles by plaque assay at 16 h pi

Structure (SMILES): CC(C)NC[C@@H](O)COc1cccc2ccccc12 [R-propranolol, (R)-(+)-1-(isopropylamino)-3-(naphthalen-1-yloxy)propan-2-ol]
- reduction of infectivity of virus particles (virucidal activity) [1]: does not reduce infectivity of virus particles
- efficacy in viral load reduction compared with remdesivir ([2]; 25 uM): approximately the same efficacy as remdesivir
- reduction in extracellular SARS-CoV-2 genome copies ([2]; MOI 1, 50 uM, 16 h post-infection): ~2.5 log
- reduction in extracellular SARS-CoV-2 genome copies [3]: about 1.5 log
- reduction of viral load by time of addition [4]: highest reduction of viral load upon pre-treatment
